Results: patent US4843087A (priority 1986, dated 1989)
Converted amounts (≈) assume the structure as drawn.

How the values were obtained:
[1] = system: human rhinovirus (HRV) serotypes; experiment: microbe, parasite or virus in culture; format: cell-based; settings: for MIC50: read-out: Rhinovirus MIC50; for IC (MIC80 of serotype panel): read-out: Rhinovirus MIC80
[2] = system: poliovirus, type 2, MEF strain; experiment: animal or person; format: in vivo, white Swiss mice; settings: Enterovirus C, in Mus musculus, po, 336 h, read-out: Survivors Day 14 Post Infection
Polio 2 = experiment: microbe, parasite or virus in culture; format: cell-based, poliovirus; settings: Enterovirus C, HeLa, read-out: Polio 2 MIC
[3] = blood plasma concentration in dogs after oral administration; format: in vivo; settings: dog, beagle dogs, fasted, oral 25 mg/kg in corn oil, up to six hours
Protocol: The blood plasma concentrations of the compounds of the invention were measured in beagle dogs by the following procedure: Animals ranging in weight from 8.5 to 11.5 kg were fasted overnight prior to oral administration of 25 mg/kg of the test compound dissolved in corn oil (125 mg/ml) and contained in gelatin capsules. Blood samples were collected at selected time intervals up to six hours post-medication and analyzed by standard chromatographic procedures to determine the mean maximum concentration of the test compound in micrograms per milliliter [Mean Cmax, μg/ml].

SMILES	MIC50 [1]	IC (MIC80 of serotype panel) [1]	responders at 100 mg/kg [2]	responders at 200 mg/kg [2]	responders at 400 mg/kg [2]	MIC (Polio 2)	responders at 25 mg/kg [2]	responders at 50 mg/kg [2]	Cmax [3]	responders at 77 mg/kg [2]
Cc1cc(CCCCCCCOc2ccc(C3=NC(C)CO3)cc2)on1 (racemic) [Example 3, 5-{7-[4-(4,5-Dihydro-4-methyl-2-oxyazolyl)phenoxy]heptyl}-3-methylisoxazole]	0.07 µg/mL (≈ 0.196 µM)	1.6 µg/mL	45%	60%	70%	1.2 µg/mL (≈ 3.37 µM)	–	–	–	–
Cc1cc(CCCCCCCOc2ccc(C3=NCCO3)cc2Cl)on1 [13(c), 5-{7-[2-Chloro-4-(4,5-dihydro-2-oxazolyl)phenoxy]heptyl}-3-methylisoxazole]	0.34 µg/mL (≈ 0.902 µM)	1.06 µg/mL	80%	–	–	0.17 µg/mL (≈ 0.451 µM)	20%	61.1%	–	–
Cc1cc(CCCCCOc2c(Cl)cc(C3=NC(C)CO3)cc2Cl)on1 (stereo not drawn) [Example 107, 5-{5-[2,6-Dichloro-4-(4,5-dihydro-4-methyl-2-oxazolyl)phenoxy]pentyl}-3-methylisoxazole]	0.12 µg/mL (≈ 0.302 µM)	0.37 µg/mL	–	–	–	4.6 µg/mL (≈ 11.6 µM)	–	–	1530 ± 140 ng/mL	–
Cc1cc(CCCCCCOc2c(Cl)cc(C3=NCCO3)cc2Cl)on1 [Example 106, 5-{6-[2,6-Dichloro-4-(4,5-dihydro-2-oxazolyl)phenoxy]hexyl}-3-methylisoxazole]	0.18 µg/mL (≈ 0.453 µM)	0.41 µg/mL	–	–	–	0.58 µg/mL (≈ 1.46 µM)	–	–	1530 ± 150 ng/mL	–
Cc1cc(CCCCCOc2c(Cl)cc(-c3nc(C)c(C)o3)cc2Cl)on1 [119(c), 5-{5-[2,6-Dichloro-4-(4,5-dimethyl-2-oxazolyl)phenoxy]pentyl}-3-methylisoxazole]	0.32 µg/mL (≈ 0.782 µM)	0.53 µg/mL	–	–	–	–	–	–	2130 ± 480 ng/mL	–
Cc1cc(CCCCCOc2ccc(C3=NCCO3)cc2)on1 [Example 2, 5-{5-[4-(4,5-Dihydro-2-oxazolyl)phenoxy]pentyl}-3-methylisoxazole]	0.38 µg/mL (≈ 1.21 µM)	2.2 µg/mL	–	–	–	0.6 µg/mL (≈ 1.91 µM)	–	–	–	85%
Cc1cc(CCCCCOc2ccc(C3=NCCO3)cc2Cl)on1 [15(b), 5-{5-[2-Chloro-4-(4,5-dihydro-2-oxazolyl)phenoxy]pentyl}-3-methylisoxazole]	0.08 µg/mL (≈ 0.229 µM)	0.35 µg/mL	60%	–	–	0.12 µg/mL (≈ 0.344 µM)	–	40%	–	–
Cc1cc(CCCCCCCOc2ccc(C3=NCCO3)cc2)on1 [Example 1(c), 5-{7-[4-(4,5-Dihydro-2-oxazolyl)phenoxy]heptyl}-3-methylisoxazole]	1.7 µg/mL (≈ 4.96 µM)	99 µg/mL	90%	–	–	0.04 µg/mL (≈ 0.117 µM)	–	70%	–	–
Cc1cc(CCCCCOc2ccc(-c3nc(C)co3)cc2)on1 [Example 133, 5-{5-[4-(4-Methyl-2-oxazolyl)phenoxy]pentyl}-3-methylisoxazole]	0.16 µg/mL (≈ 0.49 µM)	0.68 µg/mL	–	–	–	0.09 µg/mL (≈ 0.276 µM)	–	–	–	–
Cc1cc(CCCCCCCOc2ccc(C3=NCC(C)O3)cc2)on1 (stereo not drawn) [34(b), 5-{7-[4-(4,5-Dihydro-5-methyl-2-oxazolyl)phenoxy]heptyl}-3-methylisoxazole]	0.2 µg/mL (≈ 0.561 µM)	26.5 µg/mL	–	–	–	0.49 µg/mL (≈ 1.37 µM)	–	–	–	–
Cc1cc(CCCCCCCOc2ccc(C3=NCCO3)c(C)c2)on1 [38(b), 5-{7-[4-(4,5-Dihydro-2-oxazolyl)-3-methylphenoxy]heptyl}-3-methylisoxazole]	0.69 µg/mL (≈ 1.94 µM)	0.9 µg/mL	–	–	–	0.3 µg/mL (≈ 0.842 µM)	–	–	–	–
Cc1cc(CCCCCOc2ccc(C3=NCCO3)c(O)c2)on1 [Example 52, 5-{5-[4-(4,5-Dihydro-2-oxazolyl)-3-hydroxyphenoxy]pentyl}-3-methylisoxazole]	0.084 µg/mL (≈ 0.254 µM)	1.9 µg/mL	–	–	–	0.003 µg/mL (≈ 0.00908 µM)	–	–	–	–
Cc1cc(COCCCCCOc2ccc(C3=NCCO3)cc2)on1 [Example 99, 5-{[[5-[4-(4,5-Dihydro-2-oxazolyl)phenoxy]pentyl]oxy]methyl}-3-methylisoxazole]	1.3 µg/mL (≈ 3.77 µM)	2.3 µg/mL	–	–	–	0.27 µg/mL (≈ 0.784 µM)	–	–	–	–
Cc1cc(CCCCCOc2c(Cl)cc(C(=O)NCCCl)cc2[N+](=O)[O-])on1 [153(c), 3-Chloro-N-(2-chloroethyl)-4-{[5-(3-methyl-5-isoxazolyl)pentyl]oxy}-5-nitrobenzamide]	0.08 µg/mL (≈ 0.186 µM)	0.23 µg/mL	–	–	–	0.86 µg/mL (≈ 2 µM)	–	–	–	–
Cc1cc(CCCOCOCCOc2ccc(C3=NCCO3)cc2Cl)on1 [Example 82, 5-{3-[[2-[2-Chloro-4-(4,5-dihydro-2-oxazolyl)phenoxy]ethoxy]methoxy]propyl}-3-methylisoxazole]	1.2 µg/mL (≈ 3.04 µM)	5.4 µg/mL	–	–	–	2.9 µg/mL (≈ 7.34 µM)	–	–	–	–
Cc1cc(CCCCCCCOc2ccc(C3=NCCCO3)cc2)on1 [94(c), 5,6-Dihydro-2-{4-[7-(3-methyl-5-isoxazolyl)heptyloxy]phenyl}-4H-1,3-oxazine]	1.06 µg/mL (≈ 2.97 µM)	99 µg/mL	–	–	–	0.8 µg/mL (≈ 2.24 µM)	–	–	–	–
Cc1cc(CCCCCOc2ccc(-c3ncc(Cl)o3)cc2)on1 [Example 145, 5-{5-[4-(5-Chloro-2-oxazolyl)phenoxy]pentyl}-3-methylisoxazole]	0.2 µg/mL (≈ 0.577 µM)	0.29 µg/mL	–	–	–	0.033 µg/mL (≈ 0.0952 µM)	–	–	–	–
Cc1cc(CCCOCOCCOc2ccc(C3=NCCO3)cc2C)on1 [Example 83, 5-{3-[[2-[4-(4,5-Dihydro-2-oxazolyl)-2-methylphenoxy]ethoxy]methoxy]propyl}-3-methylisoxazole]	3.75 µg/mL (≈ 10 µM)	99 µg/mL	–	–	–	5 µg/mL (≈ 13.4 µM)	–	–	–	–
Cc1cc(CCCCCOc2ccc(C3=NCCO3)cc2)no1 [7(k), 3-{5-[4-(4,5-Dihydro-2-oxazolyl)phenoxy]pentyl}-5-methylisoxazole]	1.3 µg/mL (≈ 4.14 µM)	74.6 µg/mL	80%	–	–	0.0012 µg/mL (≈ 0.00382 µM)	–	–	–	–
Cc1cc(CCCCCCCc2ccc(C3=NCCO3)cc2)on1 [6(g), 5-{7-[4-(4,5-Dihydro-2-oxazolyl)phenyl]heptyl}-3-methylisoxazole]	–	–	85%	95%	–	0.09 µg/mL (≈ 0.276 µM)	–	25%	–	–
Cc1cc(CCCCCOc2c(C)cc(C(=O)NCCCl)cc2Cl)on1 [154(b), 3-Chloro-N-(2-chloroethyl)-5-methyl-4 -{[5-(3-methyl-5-isoxazolyl)pentyl]oxy}benzamide]	0.17 µg/mL (≈ 0.426 µM)	0.63 µg/mL	–	–	–	1.13 µg/mL (≈ 2.83 µM)	–	–	–	–
Cc1cc(CCCCCOc2ccc(C3=NCCO3)c(Cl)c2)on1 [Example 47, 5-{5-[3-Chloro-4-(4,5-dihydro-2-oxazolyl)phenoxy]pentyl}-3-methylisoxazole]	0.36 µg/mL (≈ 1.03 µM)	2.4 µg/mL	–	–	–	0.02 µg/mL (≈ 0.0573 µM)	–	–	–	–
Cc1cc(CCCCCOc2c(Cl)cc(C(=O)NCCCl)cc2Cl)on1 [162(c), 3,5-Dichloro-N-(2-chloroethyl)-4-{[5-(3-methyl-5-isoxazolyl)pentyl]oxy}benzamide]	0.16 µg/mL (≈ 0.381 µM)	0.28 µg/mL	–	–	–	0.48 µg/mL (≈ 1.14 µM)	–	–	–	–
Cc1cc(CCCCCCCOc2ccc(C3=NCCO3)c(Cl)c2)on1 [Example 50, 5-{7-[3-Chloro-4(4,5-dihydro-2-oxazolyl)phenoxy]heptyl}-3-methylisoxazole]	5.05 µg/mL (≈ 13.4 µM)	99 µg/mL	–	–	–	0.7 µg/mL (≈ 1.86 µM)	–	–	–	–
Cc1cc(CCCCCOc2ccc(C3=NCCO3)c(C)c2)on1 [Example 51, 5-{5-[4-(4,5-Dihydro-2oxazolyl)-3-methylphenoxy]pentyl}-3-methylisoxazole]	0.56 µg/mL (≈ 1.71 µM)	1.6 µg/mL	–	–	–	0.045 µg/mL (≈ 0.137 µM)	–	–	–	–
